We go through 5 compounds from patent EP4703354A1, “COMPOUND AS CCR6 ANTAGONIST, AND PHARMACEUTICAL COMPOSITION AND USE THEREOF” (Wuhan Createrna Science and Technology Co.,Ltd., priority 2023, dated 2024).

Data set [1] deals with T1, human CCR6 (Homo sapiens, UniProt P51684).
T1 construct: expressed in transfected cells; host or cells: HEK293
T1 sequence (P51684 1-374): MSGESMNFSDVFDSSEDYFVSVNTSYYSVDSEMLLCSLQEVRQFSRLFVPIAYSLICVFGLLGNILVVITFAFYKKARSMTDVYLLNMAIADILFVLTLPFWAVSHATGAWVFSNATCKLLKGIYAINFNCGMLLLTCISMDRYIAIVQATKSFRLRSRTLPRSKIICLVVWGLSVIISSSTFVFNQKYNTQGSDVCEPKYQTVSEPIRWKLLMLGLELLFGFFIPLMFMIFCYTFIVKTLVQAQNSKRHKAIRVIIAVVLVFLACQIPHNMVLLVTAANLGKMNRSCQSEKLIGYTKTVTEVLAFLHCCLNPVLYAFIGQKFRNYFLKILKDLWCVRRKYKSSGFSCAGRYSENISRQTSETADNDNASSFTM
The experiment in a line: human CCR6 calcium flux activity (FLIPR, HEK293 cells stably expressing human CCR6, CCL20 stimulation). The data set is classed as cell-based. To be noted: for IC50: HEK293 cells stably expressing human CCR6, EC80 human MIP-3 alpha/CCL20, read-out: CCR6 inhibitory activity, IC50; for CCR6 selectivity: ratio of CXCR2 IC50 to CCR6 IC50. In a few lines: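 Read-out is the RFUMax−RFUMin calcium signal (494/516 nm, 90 s) after EC80 CCL20 addition, fitted four-parameter for IC50. Before agonist, Fluo-4 Direct-loaded cells sat with compound 50 min at 37 °C plus 10 min at room temperature.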

Data set [2] deals with T2, human CXCR2 (Homo sapiens, UniProt P25025).
T2 construct: expressed in transfected cells; host or cells: HEK293
T2 sequence (P25025 1-360): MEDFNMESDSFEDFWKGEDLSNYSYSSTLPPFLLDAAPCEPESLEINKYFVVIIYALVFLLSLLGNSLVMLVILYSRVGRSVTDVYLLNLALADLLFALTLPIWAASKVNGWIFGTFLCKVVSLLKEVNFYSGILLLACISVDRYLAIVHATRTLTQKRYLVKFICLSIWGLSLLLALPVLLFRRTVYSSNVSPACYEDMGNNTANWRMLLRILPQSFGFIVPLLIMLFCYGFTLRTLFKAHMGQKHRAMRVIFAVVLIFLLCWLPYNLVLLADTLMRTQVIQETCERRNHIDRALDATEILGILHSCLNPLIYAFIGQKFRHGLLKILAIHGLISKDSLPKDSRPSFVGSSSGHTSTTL
In words: human CXCR2 calcium flux activity (FLIPR, HEK293 cells stably expressing human CXCR2, IL-8 stimulation). To be noted: HEK293 cells stably expressing human CXCR2, EC80 human IL-8; read-out: CXCR2 inhibitory activity, IC50. The data set is classed as cell-based. How it is done: The activity of the compounds was evaluated using HEK293 cells stably expressing human CXCR2 via the FLIPR platform. A 384-well black cell culture plate (Greiner, 781946) was used, with a seeding density of 20,000 cells/well, and incubated overnight at 37°C in a 5% CO2 incubator. The culture medium in the cell plate wells was removed, and 20 µL of Fluo-4 Direct™ Calcium Assay Buffer (Invitrogen, F10471, Component C), 20 µL of 2× Fluo-4 Direct™ Calcium Assay Reagent (Invitrogen, F10471, Component A) working solution, and 10 µL of 6× test compound working solution were sequentially added to each well. The cell plate was incubated in a 37 °C, 5% CO2 incubator for 50 min, followed by a 10 min incubation at room temperature. Additionally, a 6×EC80 human IL-8 (Sigma, SRP3311) working solution was prepared. After the incubation was completed, 10 µL/well of the 6×EC80 human IL-8 working solution was transferred to the corresponding cell wells using a FLIPR instrument, and the fluorescence signal changes at an excitation wavelength of 494 nm and an emission wavelength of 516 nm were recorded over 130 s. The difference between the maximum fluorescence signal (RFUMax) and the minimum fluorescence signal (RFUMin) was used as the output signal. The compound inhibition rate and the log value of the compound concentration were calculated, and a four-parameter fitting analysis was performed using GraphPad Prism 8 software to obtain the IC50 value of the test compound. Table 1. Inhibitory activity data of compounds against CCR6 and CXCR2
On the technique in general: Calcium assays in cells follow changes in intracellular calcium, usually with a dye or a luminescent sensor.

A short description of data set [3]: in vivo pharmacokinetic study in SD rats. As to conditions: male, rat, plasma; for bioavailability: 1 mg/kg PO vs 1 mg/kg IV, read-out: Oral bioavailability F (%); for AUC(0-t) / Cmax / half-life: 1 mg/kg. In a few lines: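 Male SD rats (180-200 g), 3 per route: single fasted oral gavage in 1% Tween 80 or tail-vein IV bolus in 50% PEG400. Orbital blood into EDTA-K2 sampled to 8 h; plasma analysed and PK parameters derived by non-compartmental analysis.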

For orientation: IC50 means the midpoint of a concentration-inhibition curve. What is called bioavailability is dose-corrected exposure relative to a reference, in per cent. As a reminder, the AUC(0-t) is exposure summed from dosing to a finite time, without extrapolation to infinity. A higher AUC(0-t) goes with more exposure. By Cmax is commonly meant the highest concentration seen after dosing. Broadly, the half-life is how long it takes for the measured level to halve. As to `Cc1cccnc1[C@H](Nc1c(Nc2ccnc(C(=O)N(C)C)c2O)c(=O)c1=O)C1(C)CCCC1` [compound 018, (R)-3-hydroxy-N,N-dimethyl-4-((2-(((1-methylcyclopentyl)(3-methylpyridin-2-yl)methyl)amino)-3,4-dioxocyclobut-1-en-1-yl)amino)picolinamide], in data set [1], the half-maximal inhibitory concentration (IC50) was determined as 11 nM and the CCR6 selectivity turned out to be 8363.5. Further, the half-inhibitory concentration (IC50) in data set [2] was 92000 nM. Further, the bioavailability in data set [3] came out at 49.1%. In data set [3] (IV), this compound returned an AUC(0-t) of 1160 ng·h/mL and a maximum concentration (Cmax) of 2240 ng/mL. In data set [3] (PO), this compound had an AUC(0-t) of 1710 ng·h/mL, a Cmax of 920 ng/mL and a half-life of 4.3 h.

Take `CN(C)C(=O)c1nccc(Nc2c(N[C@@H](c3nc(F)ccc3F)C3(C)CCCC3)c(=O)c2=O)c1O` [compound 023, (R)-4-((2-(((3,6-difluoropyridin-2-yl)(1-methylcyclopentyl)methyl)amino)-3,4-dioxocyclobut-1-en-1-yl)amino)-3-hydroxy-N,N-dimethylpicolinamide]: in data set [1], the IC50 came to 0.9 nM and the CCR6 selectivity is reported as 227.0. The IC50 in data set [2] is 204 nM. In addition, the bioavailability in data set [3] was found to be 30.5%. Further, in data set [3] (IV), the AUC(0-t) was 2020 ng·h/mL and the Cmax amounted to 4130 ng/mL. In data set [3] (PO), the AUC(0-t) was 616 ng·h/mL, the highest level (Cmax) was 335 ng/mL and the half-life was 2.08 h.

Take `CN(C)C(=O)c1nccc(Nc2c(N[C@@H](c3nc(Cl)ccc3F)C3(C)CCCC3)c(=O)c2=O)c1O` [compound 053, (R)-4-((2-(((6-chloro-3-fluoropyridin-2-yl)(1-methylcyclopentyl)methyl)amino)-3,4-dioxocyclobut-1-en-1-yl)amino)-3-hydroxy-N,N-dimethylpicolinamide]: in data set [1], the IC50 is 1.5 nM and the CCR6 selectivity is given as 1163.3. The IC50 in data set [2] stood at 1750 nM. For the same compound, in data set [3], the bioavailability is 33.1%. Besides, in data set [3] (IV), the area under the curve AUC(0-t) worked out at 1800 ng·h/mL and the concentration peaked (Cmax) at 3890 ng/mL. In data set [3] (PO), this compound showed an area under the curve AUC(0-t) of 596 ng·h/mL, a Cmax of 380 ng/mL and a half-life of 2.33 h.

Consider `CN(C)C(=O)c1nccc(Nc2c(N[C@@H](c3nc(CF)ccc3F)C3(C)CCCC3)c(=O)c2=O)c1O` [compound 094, (R)-4-((2-(((3-fluoro-6-(fluoromethyl)pyridin-2-yl)(1-methylcyclopentyl)methyl)amino)-3,4-dioxocyclobut-1-en-1-yl)amino)-3-hydroxy-N,N-dimethylpicolinamide], for which, in data set [1], the IC50 stood at 1.1 nM and the CCR6 selectivity came out at 174.73. The IC50 in data set [2] amounted to 192 nM. In data set [3], the bioavailability came out at 22.8%. In data set [3] (IV), this compound gave an AUC(0-t) of 1210 ng·h/mL, a Cmax of 4460 ng/mL and a half-life of 0.37 h. Further, in data set [3] (PO), the AUC(0-t) is 276 ng·h/mL, the concentration peaked (Cmax) at 208 ng/mL and the half-life was 2.18 h.

With `CN(C)C(=O)c1nccc(Nc2c(N[C@@H](c3nc(C(F)F)ccc3F)C3(C)CCCC3)c(=O)c2=O)c1O` [compound 109, (R)-4-((2-(((6-(difluoromethyl)-3-fluoropyridin-2-yl)(1-methylcyclopentyl)methyl)amino)-3,4-dioxocyclobut-1-en-1-yl)amino)-3-hydroxy-N,N-dimethylpicolinamide], in data set [1], the IC50 amounted to 2.4 nM and the CCR6 selectivity was 55.5. The half-inhibitory concentration (IC50) in data set [2] was found to be 133 nM. In addition, the bioavailability in data set [3] was 61.8%. In data set [3] (IV), this compound had an AUC(0-t) of 786 ng·h/mL, a Cmax of 3140 ng/mL and a half-life of 0.5 h. In data set [3] (PO), this compound had an AUC(0-t) of 485 ng·h/mL, a Cmax of 264 ng/mL and a half-life of 2.07 h.
